The record followed here is US20100311170A1, “METHOD FOR REPROGRAMMING DIFFERENTIATED CELLS” (priority 2008, published 2010).

Where only a bound is given, the exact number is not on record here.

Holding throughout (format): cell-based, mouse
One series relates to NS cells. The experiment in a line: Toxicity of BIO to NS cells (data not shown). As to conditions: BIO concentrations higher than 1 μM.
The subject of series [1] is ES-hygro×thymocyte-neo cells. The series is described as follows: ES×thymocyte fusion, hybrids cultured in BIO; reprogrammed clones counted. The method, then: ES×thymocyte fusions: the cells were fused in suspensions as previously described (Silva et al., 2006). After fusion, they were packed by centrifugation and the supernatant was discarded. The pelleted cells were resuspended in complete ES-cell medium and plated. The selection was carried out after 24 h, using hygromycin plus neomycin.

The test system of the next series is NS-Oct4-puro cells. The experiment in a line: BIO-pretreated NS-Oct4-puro cells fused with non-treated ES-neo cells. As to conditions: NS cells pretreated with BIO before fusion. The method, then:
FIG. 12. […] (A) Plates containing fused hybrid colonies between BIO-treated NS-Oct4-puro cells and non-treated ES-neo cells. The clones were stained for the expression of AP and counted. The fold-change increases in the reprogrammed colonies are shown in the graph (mean±s.e.m.; n=3). (B) Example of a reprogrammed colony isolated from ES-neo cells fused with NS-Oct4-puro cells pretreated with BIO for 24 h. (C) Western blotting of total protein extracts of the NS-Oct4-puro cells at the indicated treatment times.
ES×NS and ES×MEF PEG fusions: 1.2×10^6 NS cells or MEFs were plated into T25 flasks. After 2 h, 1.2×10^6 ES cells were plated onto them, allowing them to attach to the NS cells or MEFs. After a further 2 h, 1 ml 50% (w/v) PEG 1450 (Sigma; pre-warmed to 37° C.) was added for 2 min, and then the cells were washed three times with serum-free DMEM. […] After 12 h, the cells were trypsinized and plated into gelatin+laminin-treated p100 dishes. For the ES×NS selection, puromycin was added after 72 h, while for the ES×MEF selection, hygromycin plus neomycin were added after 24 h.

In series [2] the test system is Topflash reporter gene (β-catenin binding sites fused to luciferase). The experiment in a line: Topflash luciferase reporter assay in ES cells. As to conditions: 24 h. The method, then: ES cells were co-transfected by nucleofection (Amaxa) with the Topflash reporter construct driving firefly luciferase cDNA and a pRL-CMV driving constitutive expression of renilla cDNA for normalization. Treatments with Wnt3a and BIO were carried out the day after the nucleofection and cells were lysed with 1× passive reporter lysis buffer. Firefly and renilla reporter activities were measured using a 96-well-based luminometer and were detected as per manufacturer instructions (Promega Dual-Light system),

In series [3] the test system is ES-neo cells with ES-Hygro cells. The experiment in a line: PEG fusion of BIO-pretreated ES-neo cells with ES-Hygro cells (fusion control). The method, then: FIG. 6. […] Plates containing fused hybrid colonies between ES-neo cells (treated or not for 24 h with BIO) and non-treated ES-hygro cells. The clones were stained for the expression of AP and counted. The fold-change of colonies are shown in the graphs (mean±s.e.m.; n=3). (B) Quantification (as fold-increases in the number of colonies) of hybrid colonies from PEG fusions of ES-neo cells with NS-Oct4-puro cells. Hybrids from two fusion experiments (2,000,000 cells/flask) were allowed to recover for 3 h after PEG fusion. They were then pooled and divided in 5 plates ([…]) in such a way that the cells were not touching each other. Two hours after the plating, the cells were treated with BIO, as indicated. The fold-change increases in the reprogrammed colonies are shown in the graphs (mean±s.e.m.; n=3).

Series [4] has as its system ES-GFP cells with NS-Oct4-puro cells. The series is described as follows: FACS analysis of the primary fusion products (ES-GFP × NS-Oct4-puro, 3 h after PEG fusion). As to the method: ES-GFP cells were treated or not with BIO for 12, 24, 48, 72 and 96 h and subsequently PEG fused with NS-Oct4-puro cells. Hybrids were trypsinized, counted, resuspended in PBS (1×10^6 cells per point) and centrifuged. Then, 0.1 ml of 4% paraformaldehyde solution was added to the cells and they were incubated for 15 min. Blocking solution (0.1% Triton, 10% goat-serum, in PBS) was subsequently added and the cells incubated for 1 h. The cells were then labelled with α-nestin (1:100) (ab6142, Abcan) overnight. The day after, the cells were incubated with the secondary antibody conjugated with PE fluorocrome (1:50) (ab7002 Abcam) for 1 h. FACS analyses were performed using a BDBiosciences FACSAria cytometer.

The test system of series [5] is EF4 cells and NS-Oct4-(LV-Hygro) cells. The experiment in a line: PEG fusions between BIO-pretreated EF4 (Nanog over-expressing) cells and NS-Oct4-(LV-Hygro) cells. The settings on record: BIO-pretreated EF4 cells. As to the method: NS-Oct4-(LV-Hygro) cells were derived from NS-Oct4-puro and transduced with the letiviral pHRcPPT-PGK-Hygromycin vector. EF4 cells carrying the CAG promoter driving Nanog and Puromycin resistance genes were a gift of Dr. I. Chambers. Cells were cultured as previously described (Chambers et al., 2003).
NS×ES-Hygro or NS-HygroxEF4 cells PEG fusions were done as previously described. For the NS×ES-Hygro and NS×EF4 selection, Puromycin plus Hygromycin was added after 72 h.

The subject of the next series is ES-neo×MEF-hygro. The experiment in a line: PEG fusion of ES-neo cells with MEF-hygro cells, hybrids treated after fusion; reprogrammed AP-positive clones counted. The method, then: (§1) ES×NS and ES×MEF PEG fusions: 1.2×10^6 NS cells or MEFs were plated into T25 flasks. After 2 h, 1.2×10^6 ES cells were plated onto them, allowing them to attach to the NS cells or MEFs.

Series [6] concerns Nanog, Oct4, Rex1, Fgf4, c-Myc. The experiment in a line: Semiquantitative and quantitative RT-PCR of ES-cell genes and β-catenin targets in pretreated ES cells. As to conditions: for expression of pluripotent genes Nanog, Oct4, Rex1 and Fgf4: all treatment times; for c-Myc expression: under Wnt3a and BIO treatments. The method, then: For RT-PCR, the total RNA was extracted from ES cells and from embryoid bodies (200 embryoid bodies for each clone and for each differentiation time point) using the RNeasy Kit (Qiagen), and the cDNA was generated using superscript III (Invitrogen). The primers used were: […]
RNA isolation and reverse transcription were carried out as described for semiquantitative RT-PCR. The template for each PCR reaction was the cDNA obtained from 16 ng total RNA in a 25-μl reaction volume. Platinum SYBR green qPCix-UDG (Invitrogen) was used with an ABprism 7000 real-time PCR machine, according to the manufacturer recommendations. The primers used were: […]

Series [7] relates to ES-neo cells and ES×NS reprogrammed hybrids. The series is described as follows: Clonogenicity and viability of ES cells and hybrids plated in BIO-containing medium. As to conditions: scaled numbers plated. The method, then: FIG. 4. […] ES-neo cells (A) and ES×NS reprogrammed hybrids (B) (treated or not for 24 h with BIO) were plated at different densities. After 10 days, the plates were stained for AP and counted. The fold-changes in colonies are shown in the graphs (mean±s.e.m.; n=3).

Series [8] relates to ES cells fused with NS-Oct4-puro cells. The series is described as follows: Pretreated-ES×NS PEG fusions (ES cells pre-cultured with Wnt3a or BIO, then fused with non-treated NS-Oct4-puro cells). The settings on record: for enhancement of NS reprogramming: ES cells cultured for 12, 48 and 72 h; for total reprogrammed clones / increase in the numbers of reprogrammed clones: ES cells pre-cultured for 24 h and 96 h; for increase in the numbers of reprogrammed clones: Wnt3a 100 ng/ml or BIO 1 μM. As to the method: On the last day, the cells were trypsinized, counted, and plated on NS cells for fusions or harvested for RNA and protein analyses. PEG fusions and drug selection were performed as previously described.

The next series deals with β-catenin. The experiment in a line: Western blotting and immunofluorescence of β-catenin in treated ES cells. As to the method: ES cells were washed twice with phosphate-buffered saline (PBS), fixed with 4% paraformaldehyde and blocked in 5% goat serum for 40 min. […] The cells were then washed and mounted on slides with a few drops of Vectashield with DAPI (Vector Laboratories).
For orientation: In western blotting, separated proteins are transferred to a membrane and probed.

Series [9] relates to ES-neo×NS-Oct4-puro cells. The series is described as follows: PEG fusion of ES-neo cells with NS-Oct4-puro cells, hybrids treated after fusion; AP-positive puromycin-resistant reprogrammed colonies counted. As to conditions: for reprogrammed clones with respect to the control (fold): 24 h culture after fusion, Wnt3a 100 ng/ml or BIO 1 μM; for number of reprogrammed clones after prolonged treatment: 48 h of treatment after fusion. The method, then:
as §1

[10] abbreviates: cultured in BIO for 12, 24 and 48 h, double-drug selected.
The mark [11] stands for this setting: increased treatment time with BIO.
Where [12] appears, read: increasing BIO concentrations, 24 h.

As for `O=C1Nc2cc(Br)ccc2/C1=C1/Nc2ccccc2/C1=N\O` [BIO, 6-bromoindirubin-3′-oxime], the “toxicity to NS cells” value with NS cells is recorded as “slightly toxic”. In series [1] (setting [10]), the “increase in numbers of reprogrammed selected clones vs fusions in the absence of BIO” value is listed as at most 9 fold. Further, in [1] (setting [11]), the “reprogramming efficiency with increased treatment time” value was “lower”. Besides, the “number of ES-cell-like, AP-positive reprogrammed clones” value in the series with NS-Oct4-puro cells is given as “only a slight increase”. Further, in series [2] (1 μM BIO), the “activation of the Topflash reporter gene” value was “relatively limited activation”. Also, in series [2] (increasing BIO concentrations), the “Topflash activation with increasing concentration” value was “increased Topflash activation”. In addition, the “number of clones after ES×ES fusion (PEG-mediated fusion)” value in series [3] is listed as “only a slight increase”. Moreover, the “number of hybrid clones, ES cells pre-treated or not with BIO before fusion” value in series [4] is on record as “same number of hybrid clones”. The “reprogramming of NS cells with Nanog over-expression plus Wnt pathway activation” value in series [5] is given as “cooperate to enhance reprogramming”. Further, the “increase in numbers of reprogrammed selected clones vs fusions in the absence of BIO” value in the series with ES-neo×MEF-hygro (setting [10]) is listed as “up to 20 fold”. In addition, the “reprogramming efficiency with increased treatment time” value in the series on ES-neo×MEF-hygro (setting [11]) is recorded as “lower”. Also, in series [6], the “expression of pluripotent genes Nanog, Oct4, Rex1 and Fgf4” value is “same levels”; the c-Myc expression result is “constantly expressed”. In addition, in [7], the “clonogenicity and viability in absence vs presence of BIO” value was “equal”. Also, in [8], the “enhancement of NS reprogramming” value was “poor enhancement”, the total reprogrammed clones result is “about 2,000 total clones” and the “increase in the numbers of reprogrammed clones” value is reported as at most 80 fold. Moreover, the “inhibition of GSK-3 in ES cells” value with β-catenin (1 μM BIO) is recorded as “not fully inhibited”. Further, in the series with β-catenin (setting [12]), the “levels of phospho-β-catenin with increasing concentration” value was “decreased levels of phospho-β-catenin” and the “β-catenin nuclear localization with increasing concentration” value was “increased β-catenin nuclear localization”. For the same molecule, in [9], the “reprogrammed clones with respect to the control (fold)” value is “up to 70 fold” and the “number of reprogrammed clones after prolonged treatment” value is given as “decreased”. Moreover, the “time of BIO treatment giving the peak of reprogrammed clones” value in series [9] (hybrids re-plated 3 h after fusion at a dilution without cell contact, BIO for 12, 24, 48 and 72 h) is on record as 24 h.

B1: Wnt3a: Wnt protein isoform (R&D), Wnt/β-catenin pathway activator (protein, UniProt P56704 19-352, looked up)
Protein Wnt-3a: SYPIWWSLAVGPQYSSLGSQPILCASIPGLVPKQLRFCRNYVEIMPSVAEGIKIGIQECQHQFRGRRWNCTTVHDSLAIFGPVLDKATRESAFVHAIASAGVAFAVTRSCAEGTAAICGCSSRHQGSPGKGWKWGGCSEDIEFGGMVSREFADARENRPDARSAMNRHNNEAGRQAIASHMHLKCKCHGLSGSCEVKTCWWSQPDFRAIGDFLKDKYDSASEMVVEKHRESRGWVETLRPRYTYFKVPTERDLVYYEASPNFCEPNPETGSFGTRDRTCNVSSHGIDGCDLLCCGRGHNARAERRREKCRCVFHWCCYVSCQECTRVYDVHTCK
Consider B1, for which the “increase in number of AP-positive reprogrammed clones” value in the series on ES-neo×MEF-hygro (hybrids cultured with Wnt3a for 48 h) is given as “up to 5 fold”. In [6], the “expression of pluripotent genes Nanog, Oct4, Rex1 and Fgf4” value is listed as “same levels”; the c-Myc expression result was “constantly expressed”. Further, in series [8], the “enhancement of NS reprogramming” value was “poor enhancement”, the total reprogrammed clones result is listed as “about 600 total clones” and the “increase in the numbers of reprogrammed clones” value was “Up to 15 fold”. In [9], the “reprogrammed clones with respect to the control (fold)” value was “up to 20 fold” and the “number of reprogrammed clones after prolonged treatment” value is “decreased”.
